Test results: patent publication US20170258781A1, “ATRIAL SPECIFIC ANTIARRHYTHMICS FOR USE IN TREATING OR PREVENTING ATRIAL FIBRILLATION” (Tufts Medical Center, Inc., priority 2014, published 2017)

Legend:
[1] = biological target: T1, IKACh (Kir3.1 and Kir3.4 protein channels) (Homo sapiens, UniProt P48544+P48549); assay: Patch clamp block of IKACh current in transfected HEK 293 cells; format: cell-based; settings: for percentage block of IKACh current (outward component): 1 μM drug, HEK 293 cells transfected with Kir3.1/Kir3.4, barium sensitive current, 5 minute superfusion; for percentage block of IKACh current (FIG. 5, Compound A experiments): same manner and cell lines, concentration not given
T1 construct: expressed in transfected cells; host or cells: HEK 293 (human embryonic kidney cells)
T1 sequence (P48549 1-501): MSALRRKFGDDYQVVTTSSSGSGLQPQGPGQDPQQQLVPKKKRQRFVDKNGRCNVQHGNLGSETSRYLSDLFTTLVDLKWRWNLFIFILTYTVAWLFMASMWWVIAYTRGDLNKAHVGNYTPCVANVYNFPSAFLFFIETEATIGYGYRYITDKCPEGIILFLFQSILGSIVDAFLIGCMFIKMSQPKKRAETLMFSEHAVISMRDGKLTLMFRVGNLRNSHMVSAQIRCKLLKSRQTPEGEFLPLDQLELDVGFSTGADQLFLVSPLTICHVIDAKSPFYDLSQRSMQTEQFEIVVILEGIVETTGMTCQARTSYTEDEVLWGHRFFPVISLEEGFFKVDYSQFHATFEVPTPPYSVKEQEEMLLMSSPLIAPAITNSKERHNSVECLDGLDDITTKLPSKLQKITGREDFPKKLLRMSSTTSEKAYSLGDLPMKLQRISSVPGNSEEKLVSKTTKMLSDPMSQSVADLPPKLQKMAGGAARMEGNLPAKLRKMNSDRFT
T1 sequence (P48544 1-419): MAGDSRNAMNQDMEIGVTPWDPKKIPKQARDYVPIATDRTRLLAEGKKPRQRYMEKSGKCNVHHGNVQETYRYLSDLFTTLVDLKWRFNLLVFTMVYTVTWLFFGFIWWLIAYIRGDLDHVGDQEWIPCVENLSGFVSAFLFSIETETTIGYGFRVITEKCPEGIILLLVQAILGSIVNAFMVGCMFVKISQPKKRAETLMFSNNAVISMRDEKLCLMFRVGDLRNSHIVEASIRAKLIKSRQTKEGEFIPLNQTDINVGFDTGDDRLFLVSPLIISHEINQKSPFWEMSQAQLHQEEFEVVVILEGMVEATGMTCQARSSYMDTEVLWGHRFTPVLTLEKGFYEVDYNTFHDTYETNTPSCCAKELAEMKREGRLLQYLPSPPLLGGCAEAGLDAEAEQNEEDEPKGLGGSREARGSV
Protocol: FIG. 1: In patch clamp experiments, IKACh was measured in human embryonic kidney cells (HEK 293) transfected with IKACh.
The boxed area is the physiologically important outward component of the IKACh current. A magnification is shown. […] The traces are the barium sensitive currents.

[2] = biological target: IKr (hERG protein channel) (Homo sapiens, UniProt Q12809); settings: 5 min
Sequence of IKr (hERG protein channel) (Q12809 whole entry): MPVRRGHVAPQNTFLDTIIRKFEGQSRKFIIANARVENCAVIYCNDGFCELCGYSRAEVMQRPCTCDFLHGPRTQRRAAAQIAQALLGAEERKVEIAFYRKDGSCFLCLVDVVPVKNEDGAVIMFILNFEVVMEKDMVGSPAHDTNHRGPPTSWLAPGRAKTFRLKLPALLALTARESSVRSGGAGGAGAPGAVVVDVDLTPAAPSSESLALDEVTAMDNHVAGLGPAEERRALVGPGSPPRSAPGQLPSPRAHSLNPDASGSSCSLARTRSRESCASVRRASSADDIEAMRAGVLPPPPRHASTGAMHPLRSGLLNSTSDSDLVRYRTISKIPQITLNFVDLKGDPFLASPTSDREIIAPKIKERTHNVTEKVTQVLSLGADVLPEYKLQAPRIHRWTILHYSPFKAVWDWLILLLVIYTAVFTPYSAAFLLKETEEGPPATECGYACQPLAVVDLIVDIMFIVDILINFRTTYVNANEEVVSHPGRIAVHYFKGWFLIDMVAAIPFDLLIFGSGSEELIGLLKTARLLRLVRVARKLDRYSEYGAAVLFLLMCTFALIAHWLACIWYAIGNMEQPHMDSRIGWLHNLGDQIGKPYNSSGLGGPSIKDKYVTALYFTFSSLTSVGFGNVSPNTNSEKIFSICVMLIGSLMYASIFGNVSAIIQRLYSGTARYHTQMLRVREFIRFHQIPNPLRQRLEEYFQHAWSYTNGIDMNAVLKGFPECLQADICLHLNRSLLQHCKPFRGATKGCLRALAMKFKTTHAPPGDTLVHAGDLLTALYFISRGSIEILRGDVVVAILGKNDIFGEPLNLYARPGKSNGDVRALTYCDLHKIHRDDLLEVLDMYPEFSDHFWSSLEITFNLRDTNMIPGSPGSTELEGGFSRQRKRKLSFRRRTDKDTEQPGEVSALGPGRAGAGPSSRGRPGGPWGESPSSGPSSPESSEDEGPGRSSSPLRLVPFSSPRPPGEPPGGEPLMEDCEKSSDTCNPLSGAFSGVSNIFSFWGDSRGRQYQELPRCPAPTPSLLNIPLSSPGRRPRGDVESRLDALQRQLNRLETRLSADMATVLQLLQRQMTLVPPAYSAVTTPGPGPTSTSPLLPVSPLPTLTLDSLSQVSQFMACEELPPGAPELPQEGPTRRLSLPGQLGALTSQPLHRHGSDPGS
Protocol: FIG. 2: IKr current was measured in Chinese hamster ovary cells (CHO) expressing the current.
The arrow denotes the tail current. Tail current is elicited by 3 second step voltage drop from +20 mV to −40 mV. The gray trace is the remaining current after total current block with E4031.
We used the conventional patch clamp method and human embryonic kidney cells transfected with Kir3.1 and Kir3.4 protein channels responsible for IKACh, or Chinese hamster ovary cells transfected with the hERG protein channel responsible for IKr. […] In order to elicit IKACh, the cells were subjected to a voltage protocol consisting of a 2 second ramp from −130 mV to 50 mV, from a holding potential of −40 mV. IKr tail current was elicited by a 3 second voltage drop step from 20 mV to −40 mV. The drugs were superfused over a 5 minute period into the chambers that hold the cells.

[3] = Compound A vs racemic chloroquine

| Compound | percentage block of IKACh current (outward component) [1] | percentage block of IKACh current (FIG. 5, Compound A experiments) [1, 3] | further results |
| --- | --- | --- | --- |
| CCN(CC)CCC[C@@H](C)Nc1ccnc2cc(Cl)ccc12 [(R)-chloroquine, reference compound] | less than 13% |  | percentage block of IKACh current (outward component) ([1]; listed as distomer (R)): 14%±9 |
| CCN(CC)CCC[C@H](C)Nc1ccnc2cc(Cl)ccc12 [(S)-chloroquine] | more than 83% |  | percentage block of IKACh current (outward component) ([1]; listed as eutomer (S)): 83%±2 |
| CCN(CC)CCC[C@H](Cc1ccccc1)Nc1ccnc2cc(Cl)ccc12 [Compound A] |  | 110%±2.5 | IKACh block relative to chloroquine, in words [1, 3]: significantly better blocker of IKACh; percentage block of IKr current (FIG. 5, Compound A experiments) [2]: 75%±5.7 |
| chloroquine [racemic chloroquine, reference compound] |  | 52%±11 |  |
